From patent US11414379B2, “SPAK kinase inhibitors as neuroprotective agents” (United States Government as represented by the Department …, priority 2018, dated 2022)

How the values were obtained:
Experiment in all cases: Kinase panel (Dundee profiling)
Assay type in all cases: biochemical
Settings in all cases: read-out: % residual kinase activity
ABL = ABL (Homo sapiens, UniProt P00519)
Method: (§1) The kinase selectivity of ZT-1a was further assessed using standard radioisotopic enzymatic assays against a panel of 140 recombinant kinases (Dundee profiling, Table 2) (Bain et al. (2007) The Biochemical journal 408, 297-315). ZT-1a at a concentration of 10 μM inhibited only MAPKAP-K2 activity 85±7% compared to DMSO control, representing high kinase selectivity.
(§2) Referring to Table 2, ZT-1a was tested at 10 and 1 μM against a panel of 140 recombinant kinases in an enzymatic activity-based assay performed by the International Centre for Kinase Profiling in the MRC Protein Phosphorylation and Ubiquitylation Unit. Values represent % residual kinase activity (mean+/−SEM, n=3). Kinases labelled with an asterick* are inhibited ≥50% by ZT-1a.

CDK2-Cyclin A = CDK2-Cyclin A (Homo sapiens, UniProt P24941)
Method: as §1, §2

CDK9-Cyclin T1 = CDK9-Cyclin T1 (Homo sapiens, UniProt P50750)
Method: as §1, §2

DYRK2 = DYRK2 (Homo sapiens, UniProt Q92630)
Method: as §1, §2

EF2K = EF2K (Homo sapiens, UniProt O00418)
Method: as §1, §2

EPH-A2 = EPH-A2 (Homo sapiens, UniProt P29317)
Method: as §1, §2

EPH-A4 = EPH-A4 (Homo sapiens, UniProt P54764)
Method: as §1, §2

GCK = GCK (Homo sapiens, UniProt Q12851)
Method: as §1, §2

HIPK1 = HIPK1 (Homo sapiens, UniProt Q86Z02)
Method: as §1, §2

IKKe = IKKe (Homo sapiens, UniProt Q14164)
Method: as §1, §2

JAK2 = JAK2 (Homo sapiens, UniProt O60674)
Method: as §1, §2

MAPKAP-K3 = MAPKAP-K3 (Homo sapiens, UniProt Q16644)
Method: as §1, §2

MARK4 = MARK4 (Homo sapiens, UniProt Q96L34)
Method: as §1, §2

MINK1 = MINK1 (Homo sapiens, UniProt Q8N4C8)
Method: as §1, §2

MKK2 = MKK2 (Homo sapiens, UniProt P36507)
Method: as §1, §2

MNK1 = MNK1 (Homo sapiens, UniProt Q9BUB5)
Method: as §1, §2

MNK2 = MNK2 (Homo sapiens, UniProt Q9HBH9)
Method: as §1, §2

NEK6 = NEK6 (Homo sapiens, UniProt Q9HC98)
Method: as §1, §2

PDGFRA = PDGFRA (Homo sapiens, UniProt P16234)
Method: as §1, §2

PIM1 = PIM1 (Homo sapiens, UniProt P11309)
Method: as §1, §2

PKA = PKA (Homo sapiens, UniProt P17612)
Method: as §1, §2

PKCz = PKCz (Homo sapiens, UniProt Q05513)
Method: as §1, §2

PKD1 = PKD1 (Homo sapiens, UniProt Q15139)
Method: as §1, §2

RIPK2 = RIPK2 (Homo sapiens, UniProt O43353)
Method: as §1, §2

TESK1 = TESK1 (Homo sapiens, UniProt Q15569)
Method: as §1, §2

TTBK1 = TTBK1 (Homo sapiens, UniProt Q5TCY1)
Method: as §1, §2

TTBK2 = TTBK2 (Homo sapiens, UniProt Q6IQ55)
Method: as §1, §2

ULK2 = ULK2 (Homo sapiens, UniProt Q8IYT8)
Method: as §1, §2

WNK1 = WNK1 (Homo sapiens, UniProt Q9H4A3)
Method: as §1, §2

YES1 = YES1 (Homo sapiens, UniProt P07947)
Method: as §1, §2

p38a MAPK = p38a MAPK (Homo sapiens, UniProt Q16539)
Method: as §1, §2

p38d MAPK = p38d MAPK (Homo sapiens, UniProt O15264)
Method: as §1, §2

NEK6, sequence (Q9HC98 whole entry, species assumed): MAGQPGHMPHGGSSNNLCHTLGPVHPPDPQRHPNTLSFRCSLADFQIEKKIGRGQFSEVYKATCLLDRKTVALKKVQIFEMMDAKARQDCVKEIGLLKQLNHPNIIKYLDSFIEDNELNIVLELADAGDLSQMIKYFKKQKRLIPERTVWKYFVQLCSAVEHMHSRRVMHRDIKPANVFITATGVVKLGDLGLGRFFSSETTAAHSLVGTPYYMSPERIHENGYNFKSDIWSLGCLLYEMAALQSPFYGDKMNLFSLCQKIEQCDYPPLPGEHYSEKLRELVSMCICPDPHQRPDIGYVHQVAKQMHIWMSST
TESK1, sequence (Q15569 whole entry, species assumed): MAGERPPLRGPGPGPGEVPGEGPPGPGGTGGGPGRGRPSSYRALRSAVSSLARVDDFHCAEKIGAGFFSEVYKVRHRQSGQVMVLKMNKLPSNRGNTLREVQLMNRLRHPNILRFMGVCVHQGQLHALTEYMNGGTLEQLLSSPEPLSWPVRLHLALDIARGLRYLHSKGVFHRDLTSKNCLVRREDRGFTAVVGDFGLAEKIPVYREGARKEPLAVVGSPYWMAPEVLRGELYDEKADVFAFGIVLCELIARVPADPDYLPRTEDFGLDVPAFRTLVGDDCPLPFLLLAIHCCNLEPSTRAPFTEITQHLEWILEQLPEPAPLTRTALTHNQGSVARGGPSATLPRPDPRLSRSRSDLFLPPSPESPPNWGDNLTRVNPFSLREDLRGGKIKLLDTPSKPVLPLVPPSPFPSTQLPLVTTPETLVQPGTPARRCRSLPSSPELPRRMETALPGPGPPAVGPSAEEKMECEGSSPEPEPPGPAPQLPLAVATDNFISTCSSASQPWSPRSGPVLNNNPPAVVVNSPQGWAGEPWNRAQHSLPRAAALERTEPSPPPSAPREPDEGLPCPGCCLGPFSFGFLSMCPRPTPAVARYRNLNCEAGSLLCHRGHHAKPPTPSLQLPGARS
IKKe, sequence (Q14164 whole entry, species assumed): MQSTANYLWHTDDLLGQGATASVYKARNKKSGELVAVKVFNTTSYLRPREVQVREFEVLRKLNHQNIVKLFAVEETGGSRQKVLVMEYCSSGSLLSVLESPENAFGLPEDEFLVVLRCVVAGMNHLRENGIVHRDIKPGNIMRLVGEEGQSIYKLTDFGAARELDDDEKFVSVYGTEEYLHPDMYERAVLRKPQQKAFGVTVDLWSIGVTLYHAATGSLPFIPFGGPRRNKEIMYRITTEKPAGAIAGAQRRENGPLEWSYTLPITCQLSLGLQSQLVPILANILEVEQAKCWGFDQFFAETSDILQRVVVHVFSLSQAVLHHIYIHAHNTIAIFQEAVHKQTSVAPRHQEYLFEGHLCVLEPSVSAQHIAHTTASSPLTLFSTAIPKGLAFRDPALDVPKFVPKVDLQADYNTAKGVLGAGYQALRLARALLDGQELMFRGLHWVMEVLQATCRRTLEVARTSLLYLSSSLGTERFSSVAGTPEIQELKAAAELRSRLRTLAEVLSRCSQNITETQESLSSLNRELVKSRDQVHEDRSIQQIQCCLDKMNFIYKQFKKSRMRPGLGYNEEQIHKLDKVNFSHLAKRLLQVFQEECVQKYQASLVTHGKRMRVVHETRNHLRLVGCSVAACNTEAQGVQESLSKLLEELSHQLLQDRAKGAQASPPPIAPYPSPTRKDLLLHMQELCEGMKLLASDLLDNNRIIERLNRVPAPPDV
PKCz, sequence (Q05513 whole entry): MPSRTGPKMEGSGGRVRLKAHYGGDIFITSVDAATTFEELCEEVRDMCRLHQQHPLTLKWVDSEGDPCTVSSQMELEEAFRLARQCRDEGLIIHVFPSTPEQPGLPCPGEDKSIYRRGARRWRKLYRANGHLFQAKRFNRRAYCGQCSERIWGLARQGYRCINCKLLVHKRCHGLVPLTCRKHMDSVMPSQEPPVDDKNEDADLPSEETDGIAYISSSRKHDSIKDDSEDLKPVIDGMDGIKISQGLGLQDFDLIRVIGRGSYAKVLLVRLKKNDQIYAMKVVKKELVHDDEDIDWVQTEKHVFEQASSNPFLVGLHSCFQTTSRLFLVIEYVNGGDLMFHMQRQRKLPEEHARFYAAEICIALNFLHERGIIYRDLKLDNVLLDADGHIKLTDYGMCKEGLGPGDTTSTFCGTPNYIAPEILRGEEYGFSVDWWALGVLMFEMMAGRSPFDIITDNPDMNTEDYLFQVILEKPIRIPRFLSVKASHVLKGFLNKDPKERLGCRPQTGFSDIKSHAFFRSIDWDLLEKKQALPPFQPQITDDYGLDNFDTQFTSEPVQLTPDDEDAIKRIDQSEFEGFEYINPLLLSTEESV
TTBK1, sequence (Q5TCY1 whole entry, species assumed): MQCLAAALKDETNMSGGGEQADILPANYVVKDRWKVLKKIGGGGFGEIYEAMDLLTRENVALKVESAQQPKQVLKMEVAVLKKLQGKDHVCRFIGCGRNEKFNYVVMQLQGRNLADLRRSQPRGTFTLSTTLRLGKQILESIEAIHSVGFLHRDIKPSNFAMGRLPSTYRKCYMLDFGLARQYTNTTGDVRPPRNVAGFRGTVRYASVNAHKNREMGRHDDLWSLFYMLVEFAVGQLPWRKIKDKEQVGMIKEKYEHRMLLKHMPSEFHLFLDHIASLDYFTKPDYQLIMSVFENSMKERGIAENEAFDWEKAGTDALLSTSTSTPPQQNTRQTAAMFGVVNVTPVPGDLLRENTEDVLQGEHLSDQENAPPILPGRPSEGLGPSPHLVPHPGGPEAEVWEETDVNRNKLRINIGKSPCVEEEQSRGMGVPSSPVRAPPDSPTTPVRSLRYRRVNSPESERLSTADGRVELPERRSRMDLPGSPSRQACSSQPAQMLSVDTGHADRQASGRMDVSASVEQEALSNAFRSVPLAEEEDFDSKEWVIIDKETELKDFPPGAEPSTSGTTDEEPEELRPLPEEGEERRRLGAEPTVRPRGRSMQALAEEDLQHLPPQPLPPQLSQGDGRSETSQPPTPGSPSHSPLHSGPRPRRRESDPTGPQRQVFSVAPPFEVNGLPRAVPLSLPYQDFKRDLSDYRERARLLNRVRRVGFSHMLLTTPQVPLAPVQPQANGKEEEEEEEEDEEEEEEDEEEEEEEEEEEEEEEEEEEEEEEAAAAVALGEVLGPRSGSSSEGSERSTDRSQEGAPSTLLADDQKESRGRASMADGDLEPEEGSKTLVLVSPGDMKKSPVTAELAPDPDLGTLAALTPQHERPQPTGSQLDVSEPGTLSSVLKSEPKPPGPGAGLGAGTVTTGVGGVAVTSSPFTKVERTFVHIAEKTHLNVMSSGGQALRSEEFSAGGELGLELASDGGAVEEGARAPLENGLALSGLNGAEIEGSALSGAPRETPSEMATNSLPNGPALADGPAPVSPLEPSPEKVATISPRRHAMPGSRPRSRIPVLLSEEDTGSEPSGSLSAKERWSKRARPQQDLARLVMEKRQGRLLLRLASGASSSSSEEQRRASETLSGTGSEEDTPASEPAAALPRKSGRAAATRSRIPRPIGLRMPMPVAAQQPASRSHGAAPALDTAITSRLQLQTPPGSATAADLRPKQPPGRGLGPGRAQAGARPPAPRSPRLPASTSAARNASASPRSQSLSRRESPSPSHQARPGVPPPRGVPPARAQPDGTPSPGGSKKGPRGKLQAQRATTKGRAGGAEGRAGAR
RIPK2, sequence (O43353 whole entry, species assumed): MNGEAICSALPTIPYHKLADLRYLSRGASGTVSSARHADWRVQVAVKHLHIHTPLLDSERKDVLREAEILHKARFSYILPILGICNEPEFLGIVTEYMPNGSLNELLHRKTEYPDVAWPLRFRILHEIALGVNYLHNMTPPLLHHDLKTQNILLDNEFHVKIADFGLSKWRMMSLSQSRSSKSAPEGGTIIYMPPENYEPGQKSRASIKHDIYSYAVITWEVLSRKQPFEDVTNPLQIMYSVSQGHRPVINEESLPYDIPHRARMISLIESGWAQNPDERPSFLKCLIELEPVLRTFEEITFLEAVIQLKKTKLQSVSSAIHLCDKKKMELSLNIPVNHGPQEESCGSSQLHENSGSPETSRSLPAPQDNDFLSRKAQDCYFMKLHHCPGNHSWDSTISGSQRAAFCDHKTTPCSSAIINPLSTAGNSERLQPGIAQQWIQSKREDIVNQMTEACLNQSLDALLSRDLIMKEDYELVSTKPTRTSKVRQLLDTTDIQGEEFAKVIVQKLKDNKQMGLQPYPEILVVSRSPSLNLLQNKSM
MAPKAP-K3, sequence (Q16644 whole entry, species assumed): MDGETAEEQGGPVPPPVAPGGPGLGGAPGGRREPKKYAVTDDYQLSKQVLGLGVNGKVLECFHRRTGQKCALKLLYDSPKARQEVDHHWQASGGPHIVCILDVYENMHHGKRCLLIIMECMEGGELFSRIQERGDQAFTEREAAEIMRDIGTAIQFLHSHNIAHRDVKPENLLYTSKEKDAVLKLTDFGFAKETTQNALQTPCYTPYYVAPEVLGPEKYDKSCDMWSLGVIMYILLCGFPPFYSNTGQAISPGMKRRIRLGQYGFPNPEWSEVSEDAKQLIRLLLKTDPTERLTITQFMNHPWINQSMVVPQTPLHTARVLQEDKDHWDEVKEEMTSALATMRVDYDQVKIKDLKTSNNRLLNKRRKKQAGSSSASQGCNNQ
MNK1, sequence (Q9BUB5 whole entry, species assumed): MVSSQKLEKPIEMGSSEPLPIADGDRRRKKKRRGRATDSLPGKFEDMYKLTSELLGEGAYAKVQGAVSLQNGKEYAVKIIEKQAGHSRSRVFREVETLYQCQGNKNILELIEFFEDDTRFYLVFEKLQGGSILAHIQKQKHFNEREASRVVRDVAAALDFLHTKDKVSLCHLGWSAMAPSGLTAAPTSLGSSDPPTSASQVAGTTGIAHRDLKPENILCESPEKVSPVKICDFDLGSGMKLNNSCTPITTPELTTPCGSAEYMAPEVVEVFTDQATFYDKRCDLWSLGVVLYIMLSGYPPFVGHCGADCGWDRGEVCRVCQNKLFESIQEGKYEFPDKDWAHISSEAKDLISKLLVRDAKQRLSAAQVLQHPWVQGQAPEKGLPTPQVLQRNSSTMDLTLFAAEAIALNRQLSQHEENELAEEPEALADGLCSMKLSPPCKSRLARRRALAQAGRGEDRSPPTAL

## Cc1cc(C(C#N)c2ccc(Cl)cc2)c(Cl)cc1NC(=O)c1cc(Cl)ccc1O (stereo not shown) [ZT-1a, 5-chloro-N-(5-chloro-4-((4-chlorophenyl)(cyano)methyl)-2-methylphenyl)-2-hydroxy-benzamide]
ABL; 1 μM
  remaining activity at 1 µM: 85 ± 4%
ABL; 10 μM
  remaining activity at 10 µM: 68 ± 16%
CDK2-Cyclin A; 1 μM
  remaining activity at 1 µM: 128 ± 12%
CDK2-Cyclin A; 10 μM
  remaining activity at 10 µM: 125 ± 6%
CDK9-Cyclin T1; 1 μM
  remaining activity at 1 µM: 104%
CDK9-Cyclin T1; 10 μM
  remaining activity at 10 µM: 108 ± 1%
DYRK2; 1 μM
  remaining activity at 1 µM: 111 ± 15%
DYRK2; 10 μM
  remaining activity at 10 µM: 97 ± 10%
EF2K; 1 μM
  remaining activity at 1 µM: 104 ± 13%
EF2K; 10 μM
  remaining activity at 10 µM: 56 ± 2%
EPH-A2; 1 μM
  remaining activity at 1 µM: 89 ± 23%
EPH-A2; 10 μM
  remaining activity at 10 µM: 78 ± 11%
EPH-A4; 1 μM
  remaining activity at 1 µM: 59 ± 33%
EPH-A4; 10 μM
  remaining activity at 10 µM: 90 ± 11%
GCK; 1 μM
  remaining activity at 1 µM: 112 ± 4%
GCK; 10 μM
  remaining activity at 10 µM: 97 ± 3%
HIPK1; 1 μM
  remaining activity at 1 µM: 98 ± 13%
HIPK1; 10 μM
  remaining activity at 10 µM: 90 ± 4%
IKKe; 1 μM
  remaining activity at 1 µM: 87 ± 13%
IKKe; 10 μM
  remaining activity at 10 µM: 59 ± 5%
JAK2; 1 μM
  remaining activity at 1 µM: 125 ± 6%
JAK2; 10 μM
  remaining activity at 10 µM: 123 ± 8%
MAPKAP-K3; 1 μM
  remaining activity at 1 µM: 96 ± 26%
MAPKAP-K3; 10 μM
  remaining activity at 10 µM: 72 ± 8%
MARK4; 1 μM
  remaining activity at 1 µM: 68 ± 8%
MARK4; 10 μM
  remaining activity at 10 µM: 59 ± 9%
MINK1; 1 μM
  remaining activity at 1 µM: 107 ± 5%
MINK1; 10 μM
  remaining activity at 10 µM: 108 ± 6%
MKK2; 1 μM
  remaining activity at 1 µM: 126 ± 2%
MKK2; 10 μM
  remaining activity at 10 µM: 81 ± 27%
MNK1; 1 μM
  remaining activity at 1 µM: 78 ± 19%
MNK1; 10 μM
  remaining activity at 10 µM: 87 ± 2%
MNK2; 1 μM
  remaining activity at 1 µM: 100 ± 7%
MNK2; 10 μM
  remaining activity at 10 µM: 105 ± 3%
NEK6; 1 μM
  remaining activity at 1 µM: 107 ± 6%
NEK6; 10 μM
  remaining activity at 10 µM: 108 ± 1%
PDGFRA; 1 μM
  remaining activity at 1 µM: 84 ± 11%
PDGFRA; 10 μM
  remaining activity at 10 µM: 80 ± 7%
PIM1; 1 μM
  remaining activity at 1 µM: 108 ± 19%
PIM1; 10 μM
  remaining activity at 10 µM: 101 ± 8%
PKA; 1 μM
  remaining activity at 1 µM: 80 ± 11%
PKA; 10 μM
  remaining activity at 10 µM: 50 ± 2%
PKCz; 1 μM
  remaining activity at 1 µM: 80 ± 11%
PKCz; 10 μM
  remaining activity at 10 µM: 122 ± 28%
PKD1; 1 μM
  remaining activity at 1 µM: 89%
PKD1; 10 μM
  remaining activity at 10 µM: 79 ± 10%
RIPK2; 1 μM
  remaining activity at 1 µM: 128 ± 5%
RIPK2; 10 μM
  remaining activity at 10 µM: 120 ± 3%
TESK1; 1 μM
  remaining activity at 1 µM: 109 ± 3%
TESK1; 10 μM
  remaining activity at 10 µM: 77 ± 10%
TTBK1; 1 μM
  remaining activity at 1 µM: 119 ± 5%
TTBK1; 10 μM
  remaining activity at 10 µM: 102 ± 2%
TTBK2; 1 μM
  remaining activity at 1 µM: 101 ± 32%
TTBK2; 10 μM
  remaining activity at 10 µM: 98 ± 34%
ULK2; 1 μM
  remaining activity at 1 µM: 110 ± 11%
ULK2; 10 μM
  remaining activity at 10 µM: 49 ± 9%
WNK1; 1 μM
  remaining activity at 1 µM: 125 ± 17%
WNK1; 10 μM
  remaining activity at 10 µM: 122 ± 35%
YES1; 1 μM
  remaining activity at 1 µM: 109 ± 3%
YES1; 10 μM
  remaining activity at 10 µM: 98 ± 7%
p38a MAPK; 1 μM
  remaining activity at 1 µM: 128 ± 7%
p38a MAPK; 10 μM
  remaining activity at 10 µM: 113 ± 2%
p38d MAPK; 1 μM
  remaining activity at 1 µM: 95 ± 1%
p38d MAPK; 10 μM
  remaining activity at 10 µM: 112 ± 2%
